Measurements published in patent US20250287942A1, “FORMULATIONS FOR REPELLING BEES AND OTHER INSECTS” (priority 2022, published 2025).

How the values were obtained:
[1] = TGA volatility at 40 degrees Celsius (Example 3); assay type: physicochemical; conditions: isothermal at 40° C. for 900 minutes, slope from 800-900 minutes
Experimental: Volatility may be measured by Thermogravimetric Analysis (TGA) method. Volatility of bee repellent compounds is measured by TGA at 40° C. (i.e., as bee repellent wt % loss per min at 40° C.). In some variations, a “high volatility” bee repellent compound has a volatility greater than 1E-04 (wt % loss/min at 40° C.). In some variations, a “low volatility” bee repellent compound has a bee repellent volatility less than 1E-04 (wt % loss/min at 40° C.).
A TA Instruments TGA5500 was used to determine the volatility of bee repellent chemicals at 40 degrees Celsius. The sample purge was set for 25 mL/min and the balance purge is set for 10 mL/min. A 30 mg sample of the chemical was placed in the sample pan, the temperature was ramped up to 40° C. at a rate of 10° C./min and was held isothermal at 40° C. for 900 minutes. The slope was then determined from 800-900 minutes to determine its volatility. The volatility of bee repellent compounds were determined according to Table 6 below.

[2] = system: honey bee workers (Apis mellifera); test: 2-choice plate (petri-dish arena) assay, honey vs honey plus repellent candidate; assay type: in vivo; conditions: 2-choice plate assay; for First choice Preference Index (repellent side): first visit and drink (repellent - solvent)/(repellent + solvent); for Honey consumption Preference Index (repellent side): plates where honeybees drank more honey from (repellent - solvent)/(repellent + solvent)
Experimental: To date, we used capped brood frames from 10 colonies kept in three apiaries on campus at UC Riverside. After moving the brood (pupated honey bee larvae) into an observation frame inside an incubator overnight, we collected freshly emerged honey bee workers into groups of 80 per cage, providing them with a small piece of wax foundation, 50% sugar water and tap water ad libitum. Between day 3 and day 10 post emergence, we provided them with a protein dough. We removed dead workers and exchanged food every second day. After the bees reached foraging age (13-19 days post emergence), we grouped them into cages of 40 workers, each. To ensure that they were hungry enough to participate in our trials, we starved the workers before each experiment, depending on their age. Between 13 and 16 days of age, we wet-starved them for 17 hours by removing the sugar water tube from their cage, replacing it with an empty vial. Bees aged between 17 and 19 days were starved for six hours, only, to ensure their survival. On the day of the experiment, we removed dead bees and food vials from each cage, and placed the cage into a refrigerator, until the trial arena was ready, and the bees were cool enough to not move anymore.
To turn a 15 cm petri-dish into a 2-choice test arena, we taped a paper-grid on the outside of its bottom, establishing one side as honey (H) and the other as honey plus repellent candidate (HR, FIG. 3). Next, we pipetted 20 ul of pure acetone onto a 6 mm punch-out of filter paper, then let it evaporate in the fume hood for at least 30 min. We then taped the punch-out to the H-spot on the petri-dish. Repeating the process with 20 ul of the repellent candidate (5% in acetone), again letting the acetone evaporate for at least 30 Min, we stuck the now solely repellent-candidate-soaked punch-out onto the HR spot of the arena. To entice the bees to participate in our trial, we used a pipette and filled two 70 ul lids of PCR tubes full of pure, slightly warmed honey, until we observed a meniscus. We then taped one honey-filled lid onto the H, the other onto the HR filter paper, being careful not to disturb the meniscus.
We placed six prepared arenas onto a heating pillow turned onto level 1 (FIG. 2B), removed the cooled honey bee workers from the fridge and grouped between four and five bees into each plate, using insect tweezers. We filmed the bees for 60 Minutes, using an ipad (video at wide-angle, 0.5). To avoid glare, we staged the ipad on top of a plexi glass pane held by a cage constructed from pvc tubes, and covered with a double cotton sheet.
After each trial, we counted those plates, in which the honey wells had been touched as participating plates. We repeated the trials often enough to ensure participation in a minimum of five plates per repellent candidate. For each of the participating plates, we then screened each video to find the first bee that chose a honey well to drink from. The choice was recorded as either Honey (H) or Honey and repellent candidate (HR). We then calculated a Preference Index for each repellent candidate as follows: Number of repellent candidate choices minus number of honey choices) divided by sum of all choices).
The negative indexes indicate, that the honey bee workers did avoid the repellent candidates, but to varying degrees. The preference indexes show the first choices of honey bee workers (Apis mellifera) offered honey on filter paper with repellent-candidates versus honey only. Groups of 4-5 honeybee workers were placed in each 2-choice arena. Indexes are calculated per repellent candidate as (total number of repellent choices minus total number of solvent choices) divided by sum of all choices).
Preference Indexes for repellent candidates were determined in a manner similar to that described in Example 1. […]

[3] = TGA volatility method of Example 4; assay type: physicochemical; conditions: 40° C. isothermal for 15 hours, slope between 800-900 minutes
Experimental: Two BR3.3A (liquid) and BR 4.5 (solid) bee repellents were used in this example for comparison. BR 3.3A has a relatively higher volatility compared to BR 4.5. A TGA method was developed to characterize volatility of bee repellents. The volatility was measured by setting up a TGA method. In the TGA pan, 0.30 mg+0.02 mg of the bee repellent of interest is applied in an even layer on the bottom of the TGA pan immediately before starting the measurement. The TGA is programmed to have a balance purge flow of 40 mL/min and a sample purge flow of 60 mL/min. The TGA ramps from 25° C. to 40° C. at a rate of 5° C. per minute. Then the temperature is held isothermally at 40° C. for 15 hours. After the test has been completed, the slope is calculated for the % loss per minute between 800-900 minutes and the results are reported. The smaller the slope, the less the volatility. The volatility of BR3.3A measured by the above method has a slope of −4.61E-03%/min, and the slope for BR4.5 is −1.81E-04%/min.

honey bees = test: Field study on flowering buckwheat patches, honey bee counts; assay type: in vivo; conditions: emulsifiable concentrate sprayed at 4 kg/hectare; counts at 15 min, 30 min, 1 hour, 24 hours
Experimental: In this field study, 12 patches of buckwheat were planted, each measuring approximately 2 m×2 m in size in the agricultural operations field. When the flowering was estimated to be >50%, the experiments were performed. Each patch was divided into 2 approximately equal parts based on flowers by observation, one side for treatment spray and the other as control solvent (water) spray (FIG. 9A). The patches for different treatments were in a block design and the treatment side in a patch was randomly assigned as water or treatment (FIG. 9B). The test chemicals in emulsifiable concentrate form were dissolved in water in a tank to spray at the rate equivalent to 4 kg/hectare. After the spraying the numbers of honey bees present on each side of each patch was counted by 3 human observers at the following time points: 15 min, 30 min, 1 hour, 24 hours. The average number of bees at each time point were used to calculate the percentage decrease in numbers of bees on the treatment side relative to the water side and plotted (FIG. 9C).

Row | Structure (SMILES) | TGA volatility @ 40° C. (weight loss %/min) [1] [weight loss %/min] | % honey left on repellent side [2] [%] | First choice Preference Index (repellent side) [2] | Honey consumption Preference Index (repellent side) [2] | further results
1 | COCCC(=O)Oc1ccccc1 [Phenyl 3-methoxypropanoate] | 1.66E−02 |  |  |  | 
2 | CCOC(=O)CC1CCc2ccccc21 (stereo not shown) [BR 3.3A, ethyl 2-(2,3-dihydro-1H-inden-1-yl)acetate] |  | 95.83 | −1 | −1 | slope, % loss per minute (TGA volatility) [3]: −4.61E-03 %/min
3 | O=C(/C=C/c1cccnc1)c1ccncc1 [BR 4.4, 3-(3-Pyridinyl)-1-(4-pyridinyl)-2-propen-1-one] |  |  | −0.7142 | −0.7143 | 
4 | C/C(=C\C(=O)c1ccccc1)c1ccccc1 [BR 3.42, (2E)-1,3-Diphenyl-2-buten-1-on] |  |  | −0.772 | −0.727 | 
5 | CCOC(=O)c1ccccc1I [BR 3.81, Ethyl 2-iodobenzoate] |  | 99.17 | −0.9 | −0.9 | numbers of honey bees on treatment side relative to water side (honey bees): showed a decrease in numbers of honey bees
6 | CCCC(=O)CCc1ccccc1 [1-phenyl-3-hexanone] | 1.37E−02 |  |  |  | 
7 | CCN(CC)C(=O)c1cccc(C)c1 [DEET, N,N-diethyl-meta-toluamide, reference compound] | 2.29E−03 |  |  |  | 
8 | CCCCCC(=O)c1ccccc1 [BR 3.5, Hexanophenone] |  | 100 | −1 | −1 | 
9 | CCOC(=O)c1ccccc1I [Ethyl 2-iodobenzoate] | 6.66E−03 |  |  |  | 
10 | CCOC(=O)Cc1cccc(C)c1 [Ethyl m-Tolylacetate] | 2.73E−02 |  |  |  | 
11 | CCNC(=O)c1cccc(Br)c1 [3-bromo-N-ethylbenzamide] | 1.40E−04 |  |  |  | 
12 | CCNC(=O)c1cccc(Br)c1 [BR 3.47, 3-bromo-N-ethylbenzamide] |  | 95.42 | −1 | −0.6666 | 
13 | CCOC(=O)CC1CCc2ccccc21 (stereo not shown) [ethyl 2-(2,3-dihydro-1H-inden-1-yl) acetate] | 4.61E−03 |  |  |  | 
14 | CCOCCCNC(=O)c1ccccc1I [BR 3.30, N-(3-ethoxypropyl)(2-iodophenyl) carboxamide] |  | 80.45 | −0.733 | −0.8 | 
15 | CCOCCC(=O)N1CCc2ccccc21 [BR 3.9, 1-(2,3-Dihydro-1H-indol-1-yl)-3-ethoxy-1-propanone] |  |  | −0.6 | −0.8 | 
16 | CCCCCCCCC(C)=O [2-Decanone, reference compound] | 0.1623 |  |  |  | 
17 | CC(C)OC(C(=O)c1ccccc1)c1ccccc1 (stereo not shown) [BR 4.5, 2-Isopropox y-1,2-diphenyl-ethanone] |  |  | −0.8947 | −0.8947 | slope, % loss per minute (TGA volatility) [3]: −1.81E-04 %/min
18 | CCOCCCNC(=O)c1ccccc1I [N-(3-ethoxypropyl)-2-iodobenzamide] | 2.16E−05 |  |  |  | 
19 | CCOC(=O)CNc1ccccc1C#N [Ethyl 2-(2-Cyanoanilino) acetate] | 4.04E−05 |  |  |  | 
20 | CCCC(=O)CCc1ccccc1 [BR 3.4, 1-Phenyl-3-hexanone] |  | 99.72 | −1 | −1 | 
21 | COCCC(=O)Oc1ccccc1 [BR 3.1, Phenyl 3-methoxy-propanoate] |  | 99.17 | −0.8333 | −0.9166 | 
22 | CCCCCC(=O)c1ccccc1 [Hexanophenone] | 1.11E−02 |  |  |  | 
